Target: His6 USP28 (Homo sapiens (Human), UniProt Q96RU2)
Experiment: Ubiquitin-Rhodamine 110 assay to determine USP28 IC50
Type: biochemical
Details: USP28 150 pM, Ub-Rho110 41 nM, 2 h pre-incubation with enzyme, fluorescence read
Protocol: Example 21. Ubiquitin-Rhodamine 110 Assay to Determine USP28 IC50
Each assay was performed in a final volume of 8 μl in assay buffer containing 10 mM HEPES pH 7.3 ((1 M, pH 7.3 solution, (VWR J848), 100 mM NaCl (5 M, Corning 46-032-CV), 0.01% Triton X-100 (Sigma #T8787), 3.5 mM DTT (1 M, Sigma #43819) and 0.00375% BSA (10%, Calbiochem, #126609)). The assay buffer pH was adjusted to 7.5 using 1 N NaOH (JT Baker, #5000-03). Stock compounds were stored at −80° C. as a 25 mM in DMSO solution along with their respective 20 point 2 fold serial dilutions. For the dose responses, stock compound plates were allowed to come to room temperature the day of the assay. […] of the serial dilution series were pre stamped into assay plates (Black, high base, medium binding, Greiner #782076) for a final top screening concentration of 125 μM (DMSO final concentration=0.5%). Enzyme (His6 USP28, BostonBiochem, #E-570) concentration and incubation times were optimized for the maximal signal to background while maintaining the initial velocity conditions at a fixed substrate concentration. The final concentration of the enzyme in the assay was 150 pM. Final substrate (Ub-Rhol10, Ubiquitin-Rhodamine 110, UBPBio, #M3020) concentration was 41 nM. 2 μl of 4× enzyme was added to assay plates (pre stamped with compound) and incubated for 2 h at room temperature. […] was subsequently added to the assay plates and incubated for 2 h at room temperature. Fluorescence was then read on the Envision (Excitation 485 nm and Emission at 535 nm, Perkin Elmer).

Chain of His6 USP28 (Q96RU2 whole entry): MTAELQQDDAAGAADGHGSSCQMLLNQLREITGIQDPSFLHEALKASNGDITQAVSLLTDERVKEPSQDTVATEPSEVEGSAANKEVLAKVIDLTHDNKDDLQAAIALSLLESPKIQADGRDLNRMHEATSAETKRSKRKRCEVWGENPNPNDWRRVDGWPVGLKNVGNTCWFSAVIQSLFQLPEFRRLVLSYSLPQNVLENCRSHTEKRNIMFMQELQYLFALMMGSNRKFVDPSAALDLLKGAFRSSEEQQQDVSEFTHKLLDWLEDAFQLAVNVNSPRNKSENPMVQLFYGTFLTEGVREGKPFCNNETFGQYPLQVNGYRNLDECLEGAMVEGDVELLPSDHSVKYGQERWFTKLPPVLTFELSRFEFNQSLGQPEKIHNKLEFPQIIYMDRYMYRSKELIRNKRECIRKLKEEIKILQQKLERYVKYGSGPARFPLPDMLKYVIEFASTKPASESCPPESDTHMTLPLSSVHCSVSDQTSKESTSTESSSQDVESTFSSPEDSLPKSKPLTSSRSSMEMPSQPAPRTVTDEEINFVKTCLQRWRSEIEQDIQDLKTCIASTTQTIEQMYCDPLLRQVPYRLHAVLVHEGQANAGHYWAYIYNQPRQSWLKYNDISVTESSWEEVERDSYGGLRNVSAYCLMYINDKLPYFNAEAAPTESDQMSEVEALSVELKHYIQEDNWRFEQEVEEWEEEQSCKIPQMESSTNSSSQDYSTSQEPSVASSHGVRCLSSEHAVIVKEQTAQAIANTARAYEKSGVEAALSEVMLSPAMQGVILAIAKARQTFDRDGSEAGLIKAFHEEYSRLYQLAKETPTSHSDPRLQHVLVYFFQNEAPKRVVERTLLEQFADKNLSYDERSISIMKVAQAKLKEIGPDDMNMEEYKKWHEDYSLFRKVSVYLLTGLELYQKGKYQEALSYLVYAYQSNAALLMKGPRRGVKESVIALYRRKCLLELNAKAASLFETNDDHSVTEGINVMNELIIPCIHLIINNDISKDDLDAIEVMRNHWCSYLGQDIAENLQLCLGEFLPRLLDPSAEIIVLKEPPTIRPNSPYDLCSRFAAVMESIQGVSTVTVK

SMILES | IC50
Cc1ccc(C(=O)NCc2ccc(-c3nc(Cc4cccc(Cl)c4)no3)cc2)cn1 [Compound 19, N-[(4-{3-[(3-Chlorophenyl)methyl]-1,2,4-oxadiazol-5-yl}phenyl)methyl]-6-methylpyridine-3-carboxamide] | 500 to 1000 nM
Cc1oc(Cc2cccc(Cl)c2)nc1-c1ccc(OCc2cc(C(=O)N(C)C)n(C)n2)cc1 [Compound 23, 3-((4-(2-(3-Chlorobenzyl)-5-methyloxazol-4-yl)phenoxy)methyl)-N,N,1-trimethyl-1H-pyrazole-5-carboxamide] | 50 to 500 nM
Cc1oc(Cc2cccc(Cl)c2)nc1-c1ccc(OCc2ccc(C(=O)N(C)C)nn2)cc1 [Compound 25, 6-[(4-{2-[(3-Chlorophenyl)methyl]-5-methyl-1,3-oxazol-4-yl}phenoxy)methyl]-N,N-dimethylpyridazine-3-carboxamide] | < 50 nM
Cc1oc(Cc2cccc(Cl)c2)nc1-c1ccc(OCc2ccc(C(=O)N(C)C)cn2)cc1 [Compound 24, 6-[(4-{2-[(3-Chlorophenyl)methyl]-5-methyl-1,3-oxazol-4-yl}phenoxy)methyl]-N,N-dimethylpyridine-3-carboxamide] | < 50 nM
Cc1oc(Cc2cccc(Cl)c2)nc1-c1ccc(OCc2ncc(C(=O)N(C)C)cn2)cc1 [Compound 26, 2-[(4-{2-[(3-Chlorophenyl)methyl]-5-methyl-1,3-oxazol-4-yl}phenoxy)methyl]-N,N-dimethylpyrimidine-5-carboxamide] | < 50 nM
Cc1oc(Cc2cccc(Cl)c2)nc1-c1ccc(OCc2ccc(C(=O)N(C)C)cc2)cc1 [Compound 22, 4-((4-(2-(3-Chlorobenzyl)-5-methyloxazol-4-yl)phenoxy)methyl)-N,N-dimethylbenzamide] | < 50 nM
CN(C)C(=O)c1ccc(OCc2ccc(-c3nc(Cc4cccc(Cl)c4)no3)cc2)cc1 [Compound 18, 4-((4-(3-(3-Chlorobenzyl)-1,2,4-oxadiazol-5-yl)benzyl)oxy)-N,N-dimethylbenzamide] | 50 to 500 nM
CN[C@H]1CCCN(C(=O)c2ccc(COc3ccc(-c4nc(Cc5cccc(Cl)c5)oc4C)cc3)nc2)C1 [Compound 40, (3S)-1-{6-[(4-{2-[(3-Chlorophenyl)methyl]-5-methyl-1,3-oxazol-4-yl}phenoxy)methyl]pyridine-3-carbonyl}-N-methylpiperidin-3-amine] | < 50 nM
Cc1oc(Cc2cccc(Cl)c2)nc1-c1ccc(OCc2ccc(C(=O)N3CC4CCC(C3)N4)cn2)cc1 [Compound 29, (3,8-Diazabicyclo[3.2.1]octan-3-yl)(6-((4-(2-(3-chlorobenzyl)-5-methyloxazol-4-yl)phenoxy)methyl)pyridin-3-yl)methanone] | < 50 nM
Cc1oc(Cc2cccc(Cl)c2)nc1-c1ccc(COc2ccc(C(=O)N(C)C)cc2)cc1 [Compound 21, 4-((4-(2-(3-Chlorobenzyl)-5-methyloxazol-4-yl)benzyl)oxy)-N,N-dimethylbenzamide] | < 50 nM
Cc1oc(Cc2cccc(Cl)c2)nc1-c1ccc(/C=C/C(=O)N[C@H]2CN[C@H](C)C2)cc1 [Compound 15, (E)-3-(4-(2-(3-Chlorobenzyl)-5-methyloxazol-4-yl)phenyl)-N-((3R,5R)-5-methylpyrrolidin-3-yl)acrylamide] | 50 to 500 nM
CN[C@@H]1CCN(C(=O)c2ccc(COc3ccc(-c4nc(Cc5cccc(Cl)c5)oc4C)cc3)nc2)C1 [Compound 36, (3R)-1-{6-[(4-{2-[(3-Chlorophenyl)methyl]-5-methyl-1,3-oxazol-4-yl}phenoxy)methyl]pyridine-3-carbonyl}-N-methylpyrrolidin-3-amine] | < 50 nM
Cc1oc(Cc2cnn(C)c2)nc1-c1ccc(OCc2ccc(C(=O)N(C)C)cn2)cc1 [Compound 30] | 50 to 500 nM
Cc1oc(Cc2cccc(Cl)c2)nc1-c1ccc(COc2ccc(C(=O)N(C)CCN3CCCNC3=O)cc2)cc1 [Compound 44, 4-[(4-{2-[(3-Chlorophenyl)methyl]-5-methyl-1,3-oxazol-4-yl}phenyl)methoxy]-N-methyl-N-[2-(2-oxo-1,3-diazinan-1-yl)ethyl]benzamide] | < 50 nM
Cc1oc(Cc2cccc(Cl)c2)nc1-c1ccc(COc2ccc(C(=O)N3CCC(Cc4ncc[nH]4)CC3)cc2)cc1 [Compound 43, (4-((1H-Imidazol-2-yl)methyl)piperidin-1-yl)(4-((4-(2-(3-chlorobenzyl)-5-methyloxazol-4-yl)benzyl)oxy)phenyl)methanone] | < 50 nM
CC(=O)N1CCN(C(=O)c2cc3cc(OCc4ccccc4)ccc3[nH]2)C[C@@H]1C(=O)N[C@H]1C[C@@H](C)N(C#N)C1 [Compound 42] | 50 to 500 nM
Cc1oc(Cc2cccc(Cl)c2)nc1-c1ccc(OCc2ccc(C(=O)N3CCC(N)CC3)cn2)cc1 [Compound 38, 1-{6-[(4-{2-[(3-Chlorophenyl)methyl]-5-methyl-1,3-oxazol-4-yl}phenoxy)methyl]pyridine-3-carbonyl}piperidin-4-amine] | < 50 nM
Cc1oc(Cc2cccc(Cl)c2)nc1-c1ccc(OCc2ccc(C(=O)N(C)C)cc2COCCO)cc1 [Compound 33, 4-((4-(2-(3-Chlorobenzyl)-5-methyloxazol-4-yl)phenoxy)methyl)-3-((2-hydroxyethoxy)methyl)-N,N-dimethylbenzamide] | < 50 nM
Cc1oc(Cc2cccc(Cl)c2)nc1-c1ccc(OCc2ccc(C(=O)N3CCC[C@@H](C(=O)O)C3)cn2)cc1 [Compound 32, (3R)-1-{6-[(4-{2-[(3-Chlorophenyl)methyl]-5-methyl-1,3-oxazol-4-yl}phenoxy)methyl]pyridine-3-carbonyl}piperidine-3-carboxylic acid] | < 50 nM

Other lines, results leading:

IC50 | SMILES
50 to 500 nM | Cc1cccc(Cc2noc(-c3ccc(OCC(=O)N[C@@H]4C[C@@H](C)N(C#N)C4)cc3)n2)c1 [Compound 9, N-[(3R,5R)-1-Cyano-5-methylpyrrolidin-3-yl]-2-(4-{3-[(3-methylphenyl)methyl]-1,2,4-oxadiazol-5-yl}phenoxy)acetamide]
50 to 500 nM | C[C@@H]1C[C@@H](NC(=O)/C=C/c2ccc(-c3nc(Cc4cccc(Cl)c4)no3)cc2)CN1C#N [Compound 5, (E)-3-(4-(3-(3-Chlorobenzyl)-1,2,4-oxadiazol-5-yl)phenyl)-N-((3R,5R)-1-cyano-5-methylpyrrolidin-3-yl)acrylamide]
50 to 500 nM | C[C@@H]1C[C@@H](NC(=O)COc2ccc(-c3nc(Cc4cccc(C(F)(F)F)c4)no3)cc2)CN1C#N [Compound 6, N-[(3R,5R)-1-Cyano-5-methylpyrrolidin-3-y1]-2-[4-(3-{[3-(trifluoromethyl)phenyl]methyl}-1,2,4-oxadiazol-5-y1)phenoxy]acetamide]
> 1000 nM | C[C@@H]1C[C@@H](NC(=O)COc2ccc(-c3nc(Cc4ccccc4)no3)cc2)CN1C#N [Compound 2, 2-[4-(3-Benzyl-1,2,4-oxadiazol-5-yl)phenoxy]-N-[(3R,5R)-1-cyano-5-methylpyrrolidin-3-yl]acetamide]
50 to 500 nM | C[C@@H]1C[C@@H](NC(=O)COc2ccc(-c3nc(Cc4cccc(Cl)c4)no3)cc2)CN1C#N [Compound 3, 2-(4-(3-(3-Chlorobenzyl)-1,2,4-oxadiazol-5-yl)phenoxy)-N-((3R,5R)-1-cyano-5-methylpyrrolidin-3-yl)acetamide]
> 1000 nM | C[C@@H]1C[C@@H](NC(=O)/C=C/c2cccc(-c3nc(Cc4cccc(Cl)c4)no3)c2)CN1C#N [Compound 17, (2E)-3-(3-{3-[(3-Chlorophenyl)methyl]-1,2,4-oxadiazol-5-yl}phenyl)-N-[(3R,5R)-1-cyano-5-methylpyrrolidin-3-yl]prop-2-enamide]
> 1000 nM | C[C@@H]1C[C@@H](NC(=O)COc2ccc(-c3nc(Cc4cccc(Cl)c4)no3)nc2)CN1C#N [Compound 12, 2-[(6-{3-[(3-Chlorophenyl)methyl]-1,2,4-oxadiazol-5-yl}pyridin-3-yl)oxy]-N-[(3R,5R)-1-cyano-5-methylpyrrolidin-3-yl]acetamide]
> 1000 nM | C[C@@H]1C[C@@H](NC(=O)Cc2ccc(-c3nc(Cc4cccc(Cl)c4)no3)cc2)CN1C#N [Compound 16, 2-(4-{3-[(3-Chlorophenyl)methyl]-1,2,4-oxadiazol-5-yl}phenyl)-N-[(3R,5R)-1-cyano-5-methylpyrrolidin-3-yl]acetamide]
50 to 500 nM | C[C@@H]1C[C@@H](NC(=O)NCc2ccc(-c3nc(Cc4cccc(Cl)c4)no3)cc2)CN1C#N [Compound 10, 1-(4-(3-(3-Chlorobenzyl)-1,2,4-oxadiazol-5-yl)benzyl)-3-((3R,5R)-1-cyano-5-methylpyrrolidin-3-yl)urea]
500 to 1000 nM | C/C(=C\c1ccc(-c2nc(Cc3cccc(Cl)c3)no2)cc1)C(=O)N[C@@H]1C[C@@H](C)N(C#N)C1 [Compound 13, (E)-3-(4-(3-(3-chlorobenzyl)-1,2,4-oxadiazol-5-yl)phenyl)-N-((3R,5R)-1-cyano-5-methylpyrrolidin-3-yl)-2-methylacrylamide]
50 to 500 nM | Cc1oc(Cc2cccc(Cl)c2)nc1-c1ccc(/C=C/C(=O)N[C@@H]2C[C@@H](C)N(C#N)C2)cc1 [Compound 14, (E)-3-(4-(2-(3-Chlorobenzyl)-5-methyloxazol-4-yl)phenyl)-N-((3R,5R)-1-cyano-5-methylpyrrolidin-3-yl)acrylamide]
